Tested on: SW 1271 complex spheroids, viability
Assay: Anticancer human tumor SW 1271 cell line growth inhibition [LSD1];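 also: spheroids exposed to agents for 7 days before luminescence read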;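 as to viability, T/C: 100% = DMSO vehicle control viability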
Conditions: for IC50: curve of first compound; for viability, T/C: stronger effect = lower value
Summary of the method: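 Multicellular complex spheroids of tumor cells with human endothelial cells (HUVEC) and mesenchymal stem cells; the LSD1 inhibitor iadademstat was combined with standard-of-care or investigational agents. Top concentration at or near clinical Cmax, half-log dilutions; final DMSO ≤0.25%.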

[1] = second compound 0.1 µM, first compound 0.0316 µM
[2] = second compound 0.1 µM, first compound 0.1 µM
[3] = second compound 0.1 µM, first compound 0.316 µM
[4] = second compound 0.1 µM, first compound 1 µM
[5] = second compound 0.1 µM, first compound 3.16 µM
[6] = second compound 0.1 µM, first compound 10 µM
[7] = second compound 0.316 µM, first compound 0.0316 µM
[8] = second compound 0.316 µM, first compound 0.1 µM
[9] = second compound 0.316 µM, first compound 0.316 µM
[10] = second compound 0.316 µM, first compound 1 µM
[11] = second compound 0.316 µM, first compound 3.16 µM
[12] = second compound 0.316 µM, first compound 10 µM
[13] = second compound 1 µM, first compound 0.0316 µM
[14] = second compound 1 µM, first compound 0.1 µM
[15] = second compound 1 µM, first compound 0.316 µM
[16] = second compound 1 µM, first compound 1 µM
[17] = second compound 1 µM, first compound 3.16 µM
[18] = second compound 1 µM, first compound 10 µM
[19] = second compound 3.16 µM, first compound 0.0316 µM
[20] = second compound 3.16 µM, first compound 0.1 µM
[21] = second compound 3.16 µM, first compound 0.316 µM
[22] = second compound 3.16 µM, first compound 1 µM
[23] = second compound 3.16 µM, first compound 3.16 µM
[24] = second compound 3.16 µM, first compound 10 µM
[25] = second compound 10 µM, first compound 0.0316 µM
[26] = second compound 10 µM, first compound 0.1 µM
[27] = second compound 10 µM, first compound 0.316 µM
[28] = second compound 10 µM, first compound 1 µM
[29] = second compound 10 µM, first compound 3.16 µM
[30] = second compound 10 µM, first compound 10 µM
[31] = second compound 0.1 µM, first compound 0.00949 µM
[32] = second compound 0.1 µM, first compound 0.03 µM
[33] = second compound 0.1 µM, first compound 0.0949 µM
[34] = second compound 0.1 µM, first compound 0.3 µM
[35] = second compound 0.316 µM, first compound 0.00949 µM
[36] = second compound 0.316 µM, first compound 0.03 µM
[37] = second compound 0.316 µM, first compound 0.0949 µM
[38] = second compound 0.316 µM, first compound 0.3 µM
[39] = second compound 1 µM, first compound 0.00949 µM
[40] = second compound 1 µM, first compound 0.03 µM
[41] = second compound 1 µM, first compound 0.0949 µM
[42] = second compound 1 µM, first compound 0.3 µM
[43] = second compound 3.16 µM, first compound 0.00949 µM
[44] = second compound 3.16 µM, first compound 0.03 µM
[45] = second compound 3.16 µM, first compound 0.0949 µM
[46] = second compound 3.16 µM, first compound 0.3 µM
[47] = second compound 10 µM, first compound 0.00949 µM
[48] = second compound 10 µM, first compound 0.03 µM
[49] = second compound 10 µM, first compound 0.0949 µM
[50] = second compound 10 µM, first compound 0.3 µM

CC1(C)CCC(CN2CCN(c3ccc(C(=O)NS(=O)(=O)c4ccc(NCC5CCOCC5)c([N+](=O)[O-])c4)c(Oc4cnc5[nH]ccc5c4)c3)CC2)=C(c2ccc(Cl)cc2)C1 + NC1CCC(NC2CC2c2ccccc2)CC1
IC50 (second compound 0.1 µM): 2.1 µM
IC50 (second compound 0.316 µM): 2.05 µM
IC50 (second compound 1 µM): 2.04 µM
IC50 (second compound 3.16 µM): 2.17 µM
IC50 (second compound 10 µM): 2.35 µM
viability, T/C [1]: 103%
viability, T/C [2]: 95.6%
viability, T/C [3]: 94.6%
viability, T/C [4]: 92.2%
viability, T/C [5]: 26.9%
viability, T/C [6]: 0.57%
viability, T/C [7]: 100%
viability, T/C [8]: 100%
viability, T/C [9]: 106%
viability, T/C [10]: 96.6%
viability, T/C [11]: 21.6%
viability, T/C [12]: 0.63%
viability, T/C [13]: 89.5%
viability, T/C [14]: 90.5%
viability, T/C [15]: 99.7%
viability, T/C [16]: 103%
viability, T/C [17]: 21.9%
viability, T/C [18]: 0.38%
viability, T/C [19]: 96.4%
viability, T/C [20]: 101%
viability, T/C [21]: 99%
viability, T/C [22]: 97.2%
viability, T/C [23]: 26.9%
viability, T/C [24]: 0.42%
viability, T/C [25]: 92.5%
viability, T/C [26]: 102%
viability, T/C [27]: 97.8%
viability, T/C [28]: 95.4%
viability, T/C [29]: 34.3%
viability, T/C [30]: 0.66%

CC1COCCN1c1cc(C2(S(C)(=N)=O)CC2)nc(-c2ccnc3[nH]ccc23)n1 (stereo not given) + NC1CCC(NC2CC2c2ccccc2)CC1
IC50 (second compound 0.1 µM): > 10 µM
IC50 (second compound 0.316 µM): 8.63 µM
IC50 (second compound 1 µM): > 10 µM
IC50 (second compound 3.16 µM): 9.17 µM
IC50 (second compound 10 µM): 3.28 µM
viability, T/C [1]: 108%
viability, T/C [2]: 103%
viability, T/C [3]: 111%
viability, T/C [4]: 76.2%
viability, T/C [5]: 69.1%
viability, T/C [6]: 58.8%
viability, T/C [7]: 100%
viability, T/C [8]: 95.8%
viability, T/C [9]: 99.1%
viability, T/C [10]: 81.7%
viability, T/C [11]: 59.5%
viability, T/C [12]: 48.3%
viability, T/C [13]: 94.5%
viability, T/C [14]: 101%
viability, T/C [15]: 85.1%
viability, T/C [16]: 68.2%
viability, T/C [17]: 72.3%
viability, T/C [18]: 53.7%
viability, T/C [19]: 82.9%
viability, T/C [20]: 88.7%
viability, T/C [21]: 86.7%
viability, T/C [22]: 75.9%
viability, T/C [23]: 73.4%
viability, T/C [24]: 47.9%
viability, T/C [25]: 97.4%
viability, T/C [26]: 92.3%
viability, T/C [27]: 71.1%
viability, T/C [28]: 78.4%
viability, T/C [29]: 50.9%
viability, T/C [30]: 19.4%

CCN(c1cc(-c2ccc(CN3CCOCC3)cc2)cc(C(=O)NCc2c(C)cc(C)[nH]c2=O)c1C)C1CCOCC1 + NC1CCC(NC2CC2c2ccccc2)CC1
IC50 (second compound 0.1 µM): > 3 µM
IC50 (second compound 0.316 µM): > 3 µM
IC50 (second compound 1 µM): > 3 µM
IC50 (second compound 3.16 µM): > 3 µM
IC50 (second compound 10 µM): > 3 µM
viability, T/C [31]: 98.7%
viability, T/C [32]: 97%
viability, T/C [33]: 93.6%
viability, T/C [34]: 94.8%
viability, T/C (second compound 0.1 µM, first compound 0.949 µM): 82.5%
viability, T/C (second compound 0.1 µM, first compound 3 µM): 75%
viability, T/C [35]: 95%
viability, T/C [36]: 113%
viability, T/C [37]: 98.8%
viability, T/C [38]: 93%
viability, T/C (second compound 0.316 µM, first compound 0.949 µM): 85.5%
viability, T/C (second compound 0.316 µM, first compound 3 µM): 67.3%
viability, T/C [39]: 104%
viability, T/C [40]: 103%
viability, T/C [41]: 107%
viability, T/C [42]: 94.2%
viability, T/C (second compound 1 µM, first compound 0.949 µM): 71.6%
viability, T/C (second compound 1 µM, first compound 3 µM): 75.8%
viability, T/C [43]: 119%
viability, T/C [44]: 107%
viability, T/C [45]: 104%
viability, T/C [46]: 94.6%
viability, T/C (second compound 3.16 µM, first compound 0.949 µM): 76.5%
viability, T/C (second compound 3.16 µM, first compound 3 µM): 56.8%
viability, T/C [47]: 106%
viability, T/C [48]: 105%
viability, T/C [49]: 88.7%
viability, T/C [50]: 95.6%
viability, T/C (second compound 10 µM, first compound 0.949 µM): 72.9%
viability, T/C (second compound 10 µM, first compound 3 µM): 66.9%

Cn1ncnc1C1c2n[nH]c(=O)c3cc(F)cc(c23)NC1c1ccc(F)cc1 (stereo not given) + NC1CCC(NC2CC2c2ccccc2)CC1
IC50 (second compound 0.1 µM): > 0.1 µM
IC50 (second compound 0.316 µM): > 0.1 µM
IC50 (second compound 1 µM): > 0.1 µM
IC50 (second compound 3.16 µM): > 0.1 µM
IC50 (second compound 10 µM): > 0.1 µM
viability, T/C (second compound 0.1 µM, first compound 0.000316 µM): 93%
viability, T/C (second compound 0.1 µM, first compound 0.001 µM): 104%
viability, T/C (second compound 0.1 µM, first compound 0.00316 µM): 88.4%
viability, T/C (second compound 0.1 µM, first compound 0.01 µM): 94.9%
viability, T/C [1]: 88.6%
viability, T/C [2]: 90.4%
viability, T/C (second compound 0.316 µM, first compound 0.000316 µM): 86.9%
viability, T/C (second compound 0.316 µM, first compound 0.001 µM): 98.3%
viability, T/C (second compound 0.316 µM, first compound 0.00316 µM): 103%
viability, T/C (second compound 0.316 µM, first compound 0.01 µM): 91.8%
viability, T/C [7]: 82.8%
viability, T/C [8]: 86.8%
viability, T/C (second compound 1 µM, first compound 0.000316 µM): 91.7%
viability, T/C (second compound 1 µM, first compound 0.001 µM): 90.9%
viability, T/C (second compound 1 µM, first compound 0.00316 µM): 83.5%
viability, T/C (second compound 1 µM, first compound 0.01 µM): 84.3%
viability, T/C [13]: 85%
viability, T/C [14]: 83%
viability, T/C (second compound 3.16 µM, first compound 0.000316 µM): 83.4%
viability, T/C (second compound 3.16 µM, first compound 0.001 µM): 87.7%
viability, T/C (second compound 3.16 µM, first compound 0.00316 µM): 79.9%
viability, T/C (second compound 3.16 µM, first compound 0.01 µM): 98.1%
viability, T/C [19]: 76.5%
viability, T/C [20]: 93.2%
viability, T/C (second compound 10 µM, first compound 0.000316 µM): 98.6%
viability, T/C (second compound 10 µM, first compound 0.001 µM): 86.7%
viability, T/C (second compound 10 µM, first compound 0.00316 µM): 83.5%
viability, T/C (second compound 10 µM, first compound 0.01 µM): 88.1%
viability, T/C [25]: 85.3%
viability, T/C [26]: 81.7%

Nc1ncn(C2CC(O)C(CO)S2)c(=O)n1 (stereo not given) + NC1CCC(NC2CC2c2ccccc2)CC1
IC50 (second compound 0.1 µM): > 0.3 µM
IC50 (second compound 0.316 µM): > 0.3 µM
IC50 (second compound 1 µM): > 0.3 µM
IC50 (second compound 3.16 µM): > 0.3 µM
IC50 (second compound 10 µM): > 0.3 µM
viability, T/C (second compound 0.1 µM, first compound 0.000949 µM): 97.4%
viability, T/C (second compound 0.1 µM, first compound 0.003 µM): 82.8%
viability, T/C [31]: 92.1%
viability, T/C [32]: 85.2%
viability, T/C [33]: 86.9%
viability, T/C [34]: 82%
viability, T/C (second compound 0.316 µM, first compound 0.000949 µM): 98.1%
viability, T/C (second compound 0.316 µM, first compound 0.003 µM): 92%
viability, T/C [35]: 105%
viability, T/C [36]: 93.6%
viability, T/C [37]: 86.7%
viability, T/C [38]: 82.1%
viability, T/C (second compound 1 µM, first compound 0.000949 µM): 92.8%
viability, T/C (second compound 1 µM, first compound 0.003 µM): 84.5%
viability, T/C [39]: 98.6%
viability, T/C [40]: 101%
viability, T/C [41]: 89.2%
viability, T/C [42]: 72.4%
viability, T/C (second compound 3.16 µM, first compound 0.000949 µM): 94.8%
viability, T/C (second compound 3.16 µM, first compound 0.003 µM): 91.7%
viability, T/C [43]: 77.4%
viability, T/C [44]: 93.9%
viability, T/C [45]: 77.7%
viability, T/C [46]: 82.1%
viability, T/C (second compound 10 µM, first compound 0.000949 µM): 70.8%
viability, T/C (second compound 10 µM, first compound 0.003 µM): 84.5%
viability, T/C [47]: 84.5%
viability, T/C [48]: 83.9%
viability, T/C [49]: 83.2%
viability, T/C [50]: 63.6%

Source: PubChem BioAssay AID1918941 (Molecular Pharmacology Branch, DTP, NCI, 2023)
